Key:
BHV-1 antigen = experiment: Surface antigen assays of BHV-1 on FBL cells; type: cell-based, Bovine Herpes Virus Type I (BHV-1)
Procedure: Surface Antigen Assays The BHV-1 virus prepared as above (20480 TCID50) was (i) held as control; (ii) treated with dye (concentrations from 7.5 to 250 ng/ml) in cell culture medium; or (iii) treated with Compound VII and light-treated in cell culture medium. All virus was plated in 96-well flat bottom plates for 24 hours in 5x replicates on FBL cells. At that time the wells were examined for CPE, scored, and 2x wells were fixed in acetone and paraformaldehyde for examination of intracellular and surface BHV-1 antigen, respectively. The cells were treated with 50 μl of an anti-BHV-1 monoclonal antibody (gift of Dr. J. Collins, Diagnostic Laboratory, Colorado State University, School of Veterinary Medicine) used as a common diagnostic reagent, for 30 minutes at room temperature. The cells were further stained with either FITC-labeled anti-mouse or biotinylated anti-mouse and avidin rPE. The samples were placed on slides and read by fluorescent microscopy using a 495 nm excitor filter and 525 long pass emission filter on a Leitz epifluorescent microscope.

[1] = system: Human Herpes Simplex Virus Type I; experiment: Photoinduced inactivation of HSV-I, plaque assay (Table 11); type: cell-based; settings: 420±5 nm, 20J/cm^2
[2] = photochemically attenuated virus
[3] = virus and dye, dark control, 7.5 to 250 ng/ml

Compound: CCCCCCNc1c(Br)cc2c3c(cccc13)C(=O)N(CCCCCC)C2=O [Compound VII, 3-bromo-4-(hexyl)amino-N-hexyl-1,8-naphthalimide]
- internal viral antigen (BHV-1 antigen; [2]): internal antigen was observed at all concentrations of Compound VII which showed CPE
- surface viral antigen (BHV-1 antigen; [2]): Surface antigen was observed at all concentrations
- internal viral antigen (BHV-1 antigen; [3]): Internal antigen was observed and correlated with CPE levels
- surface viral antigen (BHV-1 antigen; [3]): Much surface viral antigen was detected at all dye concentrations
- Infectivity, Average ([1]; 0.078 μM): 37.5 PFU/ml
- Infectivity, first PFU/ml column ([1]; 0.078 μM): 45 PFU/ml
- Infectivity, second PFU/ml column ([1]; 0.078 μM): 30 PFU/ml
- Infectivity, Average ([1]; 0.156 μM): 17.5 PFU/ml
- Infectivity, first PFU/ml column ([1]; 0.156 μM): 20 PFU/ml
- Infectivity, second PFU/ml column ([1]; 0.156 μM): 15 PFU/ml
- Infectivity, Average ([1]; 0.312 μM): 7.5 PFU/ml
- Infectivity, first PFU/ml column ([1]; 0.312 μM): 10 PFU/ml
- Infectivity, second PFU/ml column ([1]; 0.312 μM): 5 PFU/ml
- Infectivity, Average ([1]; 0.625 μM): 0 PFU/ml
- Infectivity, first PFU/ml column ([1]; 0.625 μM): 0 PFU/ml
- Infectivity, Average ([1]; 1.25 μM): 0 PFU/ml
- Infectivity, first PFU/ml column ([1]; 1.25 μM): 0 PFU/ml
- Infectivity, second PFU/ml column ([1]; 1.25 μM): 0 PFU/ml
- Infectivity, Average ([1]; 2.5 μM): 0 PFU/ml
- Infectivity, first PFU/ml column ([1]; 2.5 μM): 0 PFU/ml
- Infectivity, second PFU/ml column ([1]; 2.5 μM): 0 PFU/ml
- Infectivity, Average ([1]; 5 μM): 0 PFU/ml
- Infectivity, first PFU/ml column ([1]; 5 μM): 0 PFU/ml
- Infectivity, second PFU/ml column ([1]; 5 μM): 0 PFU/ml
- Infectivity, Average ([1]; 10 μM): 0 PFU/ml
- Infectivity, first PFU/ml column ([1]; 10 μM): 0 PFU/ml
- Infectivity, second PFU/ml column ([1]; 10 μM): 0 PFU/ml
- activity at 0.078 µM ([1]; Human alphaherpesvirus 1, light or radiation study, 0.078 μM, read-out: % Survival): 0.006%
- log reduction at 0.078 µM ([1]; Human alphaherpesvirus 1, light or radiation study, 0.078 μM, read-out: log10 reduction): 4.2
- activity at 0.156 µM ([1]; Human alphaherpesvirus 1, light or radiation study, 0.156 μM, read-out: % Survival): 0.0028%
- log reduction at 0.156 µM ([1]; Human alphaherpesvirus 1, light or radiation study, 0.156 μM, read-out: log10 reduction): 4.5
- activity at 0.312 µM ([1]; Human alphaherpesvirus 1, light or radiation study, 0.312 μM, read-out: % Survival): 0.0012%
- log reduction at 0.312 µM ([1]; Human alphaherpesvirus 1, light or radiation study, 0.312 μM, read-out: log10 reduction): 4.9
- activity at 0.625 µM ([1]; Human alphaherpesvirus 1, light or radiation study, 0.625 μM, read-out: % Survival): < 0.0002%
- log reduction at 0.625 µM ([1]; Human alphaherpesvirus 1, light or radiation study, 0.625 μM, read-out: log10 reduction): > 5.7
- activity at 1.25 µM ([1]; Human alphaherpesvirus 1, light or radiation study, 1.25 μM, read-out: % Survival): < 0.0002%
- log reduction at 1.25 µM ([1]; Human alphaherpesvirus 1, light or radiation study, 1.25 μM, read-out: log10 reduction): > 5.7
- activity at 2.5 µM ([1]; Human alphaherpesvirus 1, light or radiation study, 2.5 μM, read-out: % Survival): < 0.0002%
- log reduction at 2.5 µM ([1]; Human alphaherpesvirus 1, light or radiation study, 2.5 μM, read-out: log10 reduction): > 5.7
- activity at 5 µM ([1]; Human alphaherpesvirus 1, light or radiation study, 5 μM, read-out: % Survival): < 0.0002%
- log reduction at 5 µM ([1]; Human alphaherpesvirus 1, light or radiation study, 5 μM, read-out: log10 reduction): > 5.7
- activity at 10 µM ([1]; Human alphaherpesvirus 1, light or radiation study, 10 μM, read-out: % Survival): < 0.0002%
- log reduction at 10 µM ([1]; Human alphaherpesvirus 1, light or radiation study, 10 μM, read-out: log10 reduction): > 5.7
